Results published in US10752626B2, “Iso-citrate dehydrogenase (IDH) inhibitor” (SHANGHAI METON PHARMACEUTICAL CO., LTD, priority 2016, dated 2020).
Where two headings read alike, the source gives them in different places.

Assay: In vivo pharmacokinetics in ICR mouse
Procedure: The pharmacokinetic properties of the compounds of the present disclosure were assessed in ICR mice (male, 6-8 weeks, 20.0-25.3 g) after p.o. and i.v. administration.
The ICR mice were purchased from Vital River Laboratory Technology Co., Ltd. (Beijing, China), housed in solid bottom polypropylene cages with sterilized bedding, kept in a room with 40% to 70% humidity, 20 to 25° C. room temperature, 10 to 20 air changes/hour, and on a 12-hour light/dark cycle except when interruptions are necessitated by study activities. The mice were fed with sterilized diet from Shanghai SLAC Laboratory Animal Co., Ltd. (Shanghai, China) and sterilized water. All animals were examined upon receipt and were acclimated for at least 3 days. Only the ones that appear to be healthy were selected for the study basing on overall health, body weight, or other relevant data as appropriate. Individual animal in each group was identified by ear notch.
The mice were fasted overnight prior to treatment, but having free access to drinking water all the time. Before dosing, each mouse was weighed and the actual dose volume for each mouse was calculated by using the formula below: Dose Volume (mL) [Nominal Dose (mg·kg^−1)/Dose Concentration (mg·mL^−1)]×Animal Body Weight (kg)
The actual body weights and the actual dose volumes were recorded accordingly.
For each test group, nine mice were used, and mice in different groups were given a single p.o dose of the test compound at 10 mg·kg^−1, or a single i.v. dose of 2 mg·kg^−1 respectively. Blood samples (e.g., at least […]) were collected into EDTA-K2 tubes at pre-determined time points, for example, pre-dose, 5 min, 15 min, 30 min, 1 h, 2 h, 4 h, 8 h, 12 h, and 24 h post-dose. Each mouse was collected the blood sample at three discontinuous time points, and three mice were used for sampling at each time point. The collected samples were centrifuged at 5500 rpm for 10 min to obtain plasma samples, which were later measured by LC-MS/MS. Data of plasma concentration vs. time were processed by linear regression analysis. All pharmacokinetic parameters were calculated using non-compartment model of Pharsight Phoenix 6.3.
The pharmacokinetics (PK) studies of the compounds were conducted in ICR mice (male, 6-8 weeks, 20.0-25.3 g, Vital River Laboratory Technology Co., Ltd.) administrated a single p.o. dose of 10 mg·kg^−1 or a single i.v. dose of 2 mg·kg^−1 according to the method disclosed in Test 4 of the Biological evaluation section.
Each experiment was independently performed in triplicate. The plasma concentration of an exemplary Compound 23 after a p.o. administration of 10 mg·kg^−1 in ICR mouse is plotted as function of time in FIG. 6. The plasma concentration of the exemplary Compound 23 after an i.v. injection of 2 mg·kg^−1 in ICR mouse is plotted as function of time in FIG. 7. Each data represents the mean plasma concentration of the three experiments with standard error of mean (SEM) as error bars.

[1] = male, plasma, iv, i.v. dose of 2 mg · kg^−1
[2] = male, plasma, po, p.o. dose of 10 mg · kg^−1

## CCN1Cc2c(ccnc2N[C@@H](C)c2ccc(Oc3ccccc3)c(F)c2)C1=O [Compound 23, (S)-2-ethyl-4-((1-(3-fluoro-4-phenoxyphenyl)ethyl)amino)-2,3-dihydro-1H-pyrrolo[3,4-c]pyridin-1-one]
i.v. dose of 2 mg · kg^−1
  AUMC0-inf: 1283 ng · h^2 · mL^−1
  AUMC0-t: 1138 ng · h^2 · mL^−1
  Kel: 0.244 h⁻¹
  MRTIV: 0.98 h
[1]
  AUC(0-t): 1300 ng·h/mL
  clearance: 25.4 mL/min/kg
  half-life: 2.8 h
male, plasma, iv, i.v. dose of 2 mg · kg^−1, read-out: AUC0-inf
  AUC0-inf: 1310 ng·h/mL
male, plasma, iv, i.v. dose of 2 mg · kg^−1, read-out: Vdss
  Vd: 1.49 L/kg
[2]
  AUC(0-t): 2890 ng·h/mL
  Cmax: 1180 ng/mL
  Tmax: 0.25 h
  half-life: 1.8 h
p.o. dose of 10 mg · kg^−1
  AUC0-inf: 2917 ng · h · mL^1
  AUMC0-inf: 7550 ng · h^2 · mL^−1
  AUMC0-t: 7099 ng · h^2 · mL^−1
  F: 44%
  Kel: 0.385 h⁻¹
  MRTPO: 2.6 h
